Experiments:
hERG potassium channel = hERG potassium channel (Homo sapiens, UniProt Q12809); assay: hERG screening assay (PatchXpress patch clamp, CHO cells)
L-type calcium channel = L-type calcium channel activity well-plate assay (IMR-32 cells, Ca-4 dye, FlexStation); format: cell-based, human
In short: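 IMR-32 human neuroblastoma cells seeded overnight at 200,000 cells/well, loaded 1 h at 37° with Ca-4 dye in HBSS/20 mM HEPES pH 7.4 with 2 mM probenecid.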

[1] = target: T1, wild-type human cardiac sodium channel, hNav1.5 (Homo sapiens, UniProt Q14524); assay: Late INa screening assay (PatchXpress whole cell patch clamp, late current generated with Tefluthrin or ATX II); format: cell-based; conditions: for effect on late sodium current: late INa assay, compounds tested at 10 μM
T1 sequence (Q14524 whole entry): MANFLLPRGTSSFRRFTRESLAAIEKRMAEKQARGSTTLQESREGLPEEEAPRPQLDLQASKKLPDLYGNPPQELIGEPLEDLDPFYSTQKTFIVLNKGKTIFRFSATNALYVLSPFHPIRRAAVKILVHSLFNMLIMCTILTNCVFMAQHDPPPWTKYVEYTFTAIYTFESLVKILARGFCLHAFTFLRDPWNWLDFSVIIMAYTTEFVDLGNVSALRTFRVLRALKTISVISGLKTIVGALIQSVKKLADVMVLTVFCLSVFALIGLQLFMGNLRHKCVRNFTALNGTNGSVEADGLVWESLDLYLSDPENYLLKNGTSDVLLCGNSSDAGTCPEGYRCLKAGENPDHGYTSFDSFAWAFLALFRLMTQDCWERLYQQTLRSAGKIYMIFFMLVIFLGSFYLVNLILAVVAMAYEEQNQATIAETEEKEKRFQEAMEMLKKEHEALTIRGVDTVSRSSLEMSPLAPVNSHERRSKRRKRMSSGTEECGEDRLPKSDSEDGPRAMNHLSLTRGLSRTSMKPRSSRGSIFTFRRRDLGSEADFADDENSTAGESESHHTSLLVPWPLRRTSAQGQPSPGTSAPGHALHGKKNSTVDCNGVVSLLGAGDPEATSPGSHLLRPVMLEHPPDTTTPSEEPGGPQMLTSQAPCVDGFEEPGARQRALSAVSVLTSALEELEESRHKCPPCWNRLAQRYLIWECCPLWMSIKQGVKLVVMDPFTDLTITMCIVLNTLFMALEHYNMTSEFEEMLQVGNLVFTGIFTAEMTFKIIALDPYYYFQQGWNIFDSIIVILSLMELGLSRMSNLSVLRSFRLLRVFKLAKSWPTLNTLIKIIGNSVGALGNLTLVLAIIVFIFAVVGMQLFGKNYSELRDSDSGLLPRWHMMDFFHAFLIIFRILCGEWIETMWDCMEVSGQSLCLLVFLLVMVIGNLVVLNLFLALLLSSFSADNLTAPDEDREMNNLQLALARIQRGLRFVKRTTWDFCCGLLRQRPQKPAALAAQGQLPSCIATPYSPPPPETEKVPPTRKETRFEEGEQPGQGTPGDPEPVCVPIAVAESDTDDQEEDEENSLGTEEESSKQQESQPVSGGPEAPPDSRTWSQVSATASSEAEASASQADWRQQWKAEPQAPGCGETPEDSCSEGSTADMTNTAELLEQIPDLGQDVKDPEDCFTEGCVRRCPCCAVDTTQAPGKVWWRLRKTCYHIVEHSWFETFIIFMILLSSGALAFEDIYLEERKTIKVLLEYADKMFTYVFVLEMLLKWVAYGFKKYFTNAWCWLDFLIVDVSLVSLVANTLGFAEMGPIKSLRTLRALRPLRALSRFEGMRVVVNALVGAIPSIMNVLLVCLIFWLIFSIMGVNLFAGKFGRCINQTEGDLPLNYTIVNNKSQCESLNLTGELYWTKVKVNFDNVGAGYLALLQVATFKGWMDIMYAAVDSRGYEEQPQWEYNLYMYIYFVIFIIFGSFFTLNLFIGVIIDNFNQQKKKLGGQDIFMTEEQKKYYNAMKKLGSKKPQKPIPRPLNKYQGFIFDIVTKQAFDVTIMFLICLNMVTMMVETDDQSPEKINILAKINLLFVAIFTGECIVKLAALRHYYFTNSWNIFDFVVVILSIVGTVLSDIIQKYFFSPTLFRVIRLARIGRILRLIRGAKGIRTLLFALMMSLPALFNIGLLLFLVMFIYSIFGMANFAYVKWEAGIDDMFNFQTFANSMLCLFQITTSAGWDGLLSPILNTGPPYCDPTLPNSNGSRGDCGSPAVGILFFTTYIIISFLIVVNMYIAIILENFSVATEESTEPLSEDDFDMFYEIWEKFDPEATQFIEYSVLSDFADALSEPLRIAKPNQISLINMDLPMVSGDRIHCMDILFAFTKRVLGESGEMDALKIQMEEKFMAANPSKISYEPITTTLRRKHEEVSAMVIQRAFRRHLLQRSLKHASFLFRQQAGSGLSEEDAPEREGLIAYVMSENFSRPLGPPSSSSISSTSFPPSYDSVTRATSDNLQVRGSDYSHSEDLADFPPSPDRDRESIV
Protocol: (§1) The late sodium current (Late INa) and peak sodium current (Peak INa) assays are performed on an automated electrophysiology platform, PatchXpress 7000A (MDS Analytical Technologies, Sunnyvale, Calif.), which uses the whole cell patch clump technique to measure currents through the cell membrane of up to 16 cells at a time. The assay uses an HEK293 (human embryonic kidney) cell line heterologously expressing the wild-type human cardiac sodium channel, hNav1.5, purchased from Millipore (Billerica, Mass.). No beta subunits were coexpressed with the Na channel alpha subunit. […] Experiments are carried out at 24-27° C.
(§2) For both the Late INa and Peak INa assays, series resistance compensation is set to 50% and whole-cell compensation is performed automatically. […] Currents through open sodium channels are automatically recorded and stored in the DataXpress2 database (MDS Analytical Technologies, Sunnyvale, Calif.). Analysis is performed using DataXpress2 analysis software and data are compiled in Excel.
Compound stocks are routinely made in glass vials to 10 mM in dimethyl sulfoxide (DMSO). In some cases, when compounds are not soluble in DMSO, they are made in 100% ethanol. Stocks are sonicated as necessary. The extracellular solution for screening Late INa is composed of: 140 mM NaCl, 4 mM KCl, 1.8 mM CaCl2, 0.75 mM MgCl2, and 5 mM HEPES with pH adjusted to 7.4 using NaOH. The extracellular solution for screening Peak INa is composed of: 20 mM NaCl, 120 mM N-methyl-D glucamine, 4 mM KCl, 1.8 mM CaCl2, 0.75 mM MgCl2, and 5 mM HEPES with pH adjusted to 7.4 using HCl. The intracellular solution used to perfuse the inside of the cells for both the Late INa and Peak INa assays contains: 120 mM CsF, […], 5 mM EGTA, 5 mM HEPES and pH adjusted to 7.4 with CsOH. […] The ONa extracellular solution used at the end of each experiment for the Late INa and Peak INa assays to measure baseline current contains: 140 mM N-methyl-D-glucamine; 4 mM KCl; 1.8 mM CaCl2; 0.75 mM MgCl2; 5 mM HEPES and pH was adjusted to 7.4 with HCl.
For the Late INa assay, sodium channels are activated every 10 seconds (0.1 Hz) by depolarizing the cell membrane to −20 mV for 250 milliseconds (ms) from a holding potential of −120 mV.
All compounds are tested to determine their activity in blocking the late sodium current. Late INa current is generated by adding 10 μM Tefluthrin (pyrethroid) to the extracellular solution while recording Na currents. […] For some experiments, 50 nM ATX II (sea anemone toxin), another late INa activator, was used to generate the late component. […] Baseline current in the absence of Na^+ ions is measured at the end of each experiment (after two additions of 0 Na solution—see above) and is used to calculate the percent block by compound.

[2] = target: T1, wild-type human cardiac sodium channel, hNav1.5; assay: Peak INa screening assay (tonic block and use-dependent block); format: cell-based; conditions: test compound at 10 μM
Protocol: as §1, §2
Compound stocks are routinely made in glass vials to 10 mM in dimethyl sulfoxide (DMSO). In some cases, when compounds are not soluble in DMSO, they are made in 100% ethanol. Stocks are sonicated as necessary. The extracellular solution for screening Late INa is composed of: 140 mM NaCl, 4 mM KCl, 1.8 mM CaCl2, 0.75 mM MgCl2, and 5 mM HEPES with pH adjusted to 7.4 using NaOH. The extracellular solution for screening Peak INa is composed of: 20 mM NaCl, 120 mM N-methyl-D glucamine, 4 mM KCl, 1.8 mM CaCl2, 0.75 mM MgCl2, and 5 mM HEPES with pH adjusted to 7.4 using HCl. The intracellular solution used to perfuse the inside of the cells for both the Late INa and Peak INa assays contains: 120 mM CsF, […], 5 mM EGTA, 5 mM HEPES and pH adjusted to 7.4 with CsOH. Compounds are diluted in extracellular solution to […] in glass vials and then transferred to glass well plates before robotic addition to the cells. The ONa extracellular solution used at the end of each experiment for the Late INa and Peak INa assays to measure baseline current contains: 140 mM N-methyl-D-glucamine; 4 mM KCl; 1.8 mM CaCl2; 0.75 mM MgCl2; 5 mM HEPES and pH was adjusted to 7.4 with HCl.
Compounds were also evaluated for their effect in several other assays, including their effect on Peak INa. In some cases, the effect on Peak INa was measured using data from the Late INa assay. […] Since the peak INa can be very large, introducing artifacts in the recording, the concentration of Na^+ in the bath is reduced to 20 mM and a nonpermeant cation is added to compensate for the Na^+ that was omitted from the standard extracellular solution (see above). The peak INa assay uses a holding potential of −100 mV and a 20 ms test pulse to 0 mV to activate the channel. As in the Late INa assay, stepping the voltage to 0 mV causes a rapid increase in negative Na current through hNav1.5 that inactivates within a few ms. No late INa activator is added for the peak assay.
For the separate peak INa assay, both tonic (TB) block and use-dependent (UDB) block of peak inward sodium current by 10 μM compound are determined. TB is block of the channel in the resting state, before the channel opens. TB is simulated in this assay by stimulating the channel to open at a low frequency (0.1 Hz). This is done in order to measure the control current amplitude and monitor current rundown, enabling correction for rundown in the calculation of percent block for TB.

[3] = tonic block, read-out: Tonic Peak INa % blk
[4] = use-dependent block, read-out: UDB Peak INa % blk

Sequence of hERG potassium channel (Q12809 whole entry): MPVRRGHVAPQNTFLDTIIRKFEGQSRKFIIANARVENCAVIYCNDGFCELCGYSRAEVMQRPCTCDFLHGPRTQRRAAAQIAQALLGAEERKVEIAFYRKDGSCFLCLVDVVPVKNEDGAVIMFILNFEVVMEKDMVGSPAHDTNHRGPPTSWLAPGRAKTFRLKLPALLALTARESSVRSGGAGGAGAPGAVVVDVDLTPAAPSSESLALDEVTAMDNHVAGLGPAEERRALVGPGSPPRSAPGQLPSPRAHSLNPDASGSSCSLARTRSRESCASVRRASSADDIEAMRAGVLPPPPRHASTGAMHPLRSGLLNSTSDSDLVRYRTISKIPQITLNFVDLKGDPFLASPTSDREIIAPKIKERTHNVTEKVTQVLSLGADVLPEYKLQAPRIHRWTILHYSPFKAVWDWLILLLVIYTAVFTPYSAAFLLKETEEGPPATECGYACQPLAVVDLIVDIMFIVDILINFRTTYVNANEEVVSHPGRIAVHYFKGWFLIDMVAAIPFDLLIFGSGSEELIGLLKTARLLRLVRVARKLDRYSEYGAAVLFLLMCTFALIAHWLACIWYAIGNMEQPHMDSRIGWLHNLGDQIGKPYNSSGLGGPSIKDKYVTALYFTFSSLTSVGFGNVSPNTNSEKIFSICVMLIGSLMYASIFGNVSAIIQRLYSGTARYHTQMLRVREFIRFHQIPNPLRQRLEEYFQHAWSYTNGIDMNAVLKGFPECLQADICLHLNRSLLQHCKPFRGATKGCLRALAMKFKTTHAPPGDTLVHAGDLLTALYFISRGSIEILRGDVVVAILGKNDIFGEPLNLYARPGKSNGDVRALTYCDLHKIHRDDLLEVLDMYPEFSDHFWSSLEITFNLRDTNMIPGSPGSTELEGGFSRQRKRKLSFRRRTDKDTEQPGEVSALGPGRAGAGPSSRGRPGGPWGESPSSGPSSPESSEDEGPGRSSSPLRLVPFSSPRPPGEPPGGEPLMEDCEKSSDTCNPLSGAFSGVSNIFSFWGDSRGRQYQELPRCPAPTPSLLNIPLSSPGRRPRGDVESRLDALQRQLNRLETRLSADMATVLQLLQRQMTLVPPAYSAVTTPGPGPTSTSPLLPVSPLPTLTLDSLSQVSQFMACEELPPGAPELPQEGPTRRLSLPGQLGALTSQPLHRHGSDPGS

Compound | hERG Patch Clamp hERG % blk (1 μM test cmpd) (hERG potassium channel) | hERG Patch Clamp hERG % blk (10 μM test cmpd) (hERG potassium channel) | CaL Plate Assay % blk (1 μM test cmpd) (L-type calcium channel) | CaL Plate Assay % blk (10 μM test cmpd) (L-type calcium channel) | inhibition at 10 µM [2, 3] | inhibition at 10 µM [2, 4] | other results
CC1=C(C(=O)N2CCN(c3ccccc3)CC2)C(c2ccc3ccccc3c2)C2=C(CCCC2=O)N1 (centres unmarked) [PT-165, 2-methyl-4-(naphthalen-2-yl)-3-(4-phenylpiperazine-1-carbonyl)-4,6,7,8-tetrahydroquinolin-5(1H)-one] | 30.5% | 64.5% | 0% | 2% | – | – | effect on late sodium current [1]: potentiated late sodium current
CC1=C(C(=O)OCc2ccccc2)[C@@H](c2ccccc2-c2ccc(C)o2)n2nnnc2N1 [PT-235, (R)-benzyl 5-methyl-7-(2-(5-methylfuran-2-yl)phenyl)-4,7-dihydrotetrazolo[1,5-a]pyrimidine-6-carboxylate] | 10% | 41.5% | – | – | 8.8% | 4.5% | –
CC1=C(C(=O)N2CCC(c3ccccc3)CC2)C(c2ccsc2)C2=C(CCCC2=O)N1 (centres unmarked) [PT-163, 2-methyl-3-(4-phenylpiperidine-1-carbonyl)-4-(thiophen-3-yl)-4,6,7,8-tetrahydroquinolin-5(1H)-one] | 15% | 53.5% | 5% | 17% | – | – | effect on late sodium current [1]: potentiated late sodium current
CCOC(=O)C1=C(C)Nc2c(c(C)nn2C)C1c1cccc2ccccc12 (centres unmarked) [PT-440, ethyl 1,3,6-trimethyl-4-(naphthalen-1-yl)-4,7-dihydro-1H-pyrazolo[3,4-b]pyridine-5-carboxylate] | 12% | 48% | – | – | 2.8% | 4.3% | –
CC1=C(C(=O)OCc2ccccc2)C(c2sccc2Br)n2nnnc2N1 (centres unmarked) [PT-401, benzyl 7-(3-bromothiophen-2-yl)-5-methyl-4,7-dihydrotetrazolo[1,5-a]pyrimidine-6-carboxylate] | – | – | – | – | 34.6% | 4.8% | –
CC1=C(C(=O)O[C@@H](C)c2ccccc2)C(c2sc3ccccc3c2C)c2cn[nH]c2N1 (some centres unmarked) [PT-523] | – | – | – | – | – | – | Late INa % blk ([1]; test compound at 10 μM): 66.7%; Tonic Peak INa % blk ([2]; tonic block): 20.8%; UDB Peak INa % blk ([2]; use-dependent block): 16.2%
CC1=C(C(=O)OCc2ccccc2)C(c2cccc3ccccc23)n2nnnc2N1Cc1nnn[nH]1 (centres unmarked) [PT-326, benzyl 4-((1H-tetrazol-5-yl)methyl)-5-methyl-7-(naphthalen-1-yl)-4,7-dihydrotetrazolo[1,5-a]pyrimidine-6-carboxylate] | – | – | – | – | 32.2% | 11.6% | –
CC1=C(C(=O)O[C@H](C)c2ccccc2)C(c2cccc3ccccc23)n2nnnc2N1 (some centres unmarked) [PT-047] | – | – | 24% | 42% | – | – | Late INa % blk ([1]; test compound at 10 μM): 67.4%; Tonic Peak INa % blk ([2]; tonic block): 36.3%
H-furo[3,4-e]pyrazolo[3,4-b]pyridin-5(4H)-one [PT-079] | 57.5% | 96.5% | – | – | – | – | Late INa % blk ([1]; test compound at 10 μM): 49%
CCOC(=O)C1=C(C)NC(C)=C(C(=O)OCC)C1c1ccc2c(c1)OCCO2 [PT-109, diethyl 4-(2,3-dihydrobenzo[b][1,4]dioxin-6-yl)-2,6-dimethyl-1,4-dihydropyridine-3,5-dicarboxylate] | 16% | 38.5% | 4% | 53% | – | – | inhibition at 10 µM ([1]; test compound at 10 μM, read-out: Late INa % blk): 76.5%
COc1ccc(C2C(C(=O)OCc3ccccc3)=C(C)Nc3nnnn32)c(C#N)c1 (centres unmarked) [PT-389, benzyl 7-(2-cyano-4-methoxyphenyl)-5-methyl-4,7-dihydrotetrazolo[1,5-a]pyrimidine-6-carboxylate] | 23.5% | 69% | – | – | 13.9% | 2.9% | –
CCOC(=O)C1=C(C)Nc2nnnn2C1c1ccccc1I (centres unmarked) [PT-492, ethyl 7-(2-iodophenyl)-5-methyl-4,7-dihydrotetrazolo[1,5-a]pyrimidine-6-carboxylate] | – | – | – | – | 20.6% | 4.8% | –
CC1=C(C(=O)OCc2ccccc2)C(c2ccccc2-c2ccc(NS(C)(=O)=O)cc2)c2cn[nH]c2N1 (centres unmarked) [PT-366, benzyl 6-methyl-4-(4′-(methylsulfonamido)biphenyl-2-yl)-4,7-dihydro-1H-pyrazolo[3,4-b]pyridine-5-carboxylate] | 28% | 92% | – | – | 20% | 4.6% | –
